Laboratory results as given in patent US20260207699A1, “PHARMACEUTICAL COMPOSITION OF KAPPA OPIOID RECEPTOR AGONIST, PREPARATION METHOD THEREFOR, AND USE THEREOF” (YICHANG HUMANWELL PHARMACEUTICAL CO., LTD., priority 2022, published 2026).
Where a name gives a salt, the structure may show the parent alone.

Key:
[1] = Stability of salts of compound of formula (II), high temperature test (40° C.); assay type: physicochemical; conditions: for stability at high temperature of 40° C. and under light of 4500 Lux: up to 30 days
Method: (§1) Samples of acetate salt, citrate salt, and phosphate salt of the compound of formula (II) were placed for investigation respectively, and the investigation conditions were high temperature test (40° C.) and light (4500 Lux). The investigation period was 5 days, 10 days and 30 days.

[2] = Stability of salts of compound of formula (II), light (4500 Lux); assay type: physicochemical
Method: as §1

[3] = system: chloroquine-induced pruritus; assay: Chloroquine-induced pruritus model of ICR mice; assay type: in vivo; conditions: 3 mg/kg subcutaneously
Method: (§2) Test sample: Prescription 5 of Example 9 of the present application was used as the test sample.
ICR mice, SPF grade, male, weighing 30 g-40 g, raised in a constant temperature environment, temperature (20±2) ° C., humidity 40%-70%; the raising environment was with a light rhythm 12 h:12 h (6:00-18:00), free feeding and water, and adaptive feeding for 1 week.
The mice were shaved on the back of the neck. After shaving, the animals were weighed, and the mice were randomly divided into 5 groups of 10 animals per group according to their body weight, which were the vehicle control group; ICI204448 (CAS No.: 121264-04-8, positive control drug) control group (3 mg/kg); Test group 1 (0.1 mg/kg); Test group 2 (0.5 mg/kg); and Test group 3 (1.5 mg/kg). After the corresponding drugs were administered subcutaneously according to groups, 400 μg of chloroquine, a pruritus model inducer, was intradermally injected into the shaved area of the back of the neck of mice. Following intradermal injection of chloroquine, mice were individually placed in transparent plexiglass boxes and the number of scratches over 30 min was counted.

[4] = system: mechanical allodynia; assay: Rat postoperative analgesic model, mechanical allodynia (paw withdrawal threshold); assay type: in vivo, Sprague-Dawley rats; conditions: 3 mg/kg
Method: as §2
Sprague-Dawley rats, SPF grade, male, weighing 200 g-220 g, raised in a constant temperature environment, temperature (20±2) ° C., humidity 40%-70%; the raising environment was with a light rhythm 12 h:12 h (6:00-18:00), free feeding and water, and adaptive feeding for 1 week.
Animals were anesthetized with Zoletil (6 mg/kg)+xylazine ([…], i.p.). The toes of the animals were squeezed to confirm that the animals were fully anesthetized prior to surgery. The skin of the surgical area on the plantar site of the left hind foot was disinfected three times using iodophor and 70% ethanol. Wait until the skin was dry, to start the surgery. An incision about 1 cm long was made longitudinally toward the toe from the heel position. After incising the skin, the flexor digitorum brevis was lifted and a longitudinal blunt injury was caused. After pressing to stop bleeding, the wound was sutured. After surgery, the animals were placed on electric blankets, and returned to the cage when the animals were fully awake (free to move).
Twenty-four hours after surgery, the baseline test of mechanical allodynia was performed on rats. […] At the same time, 10 rats of the same batch were taken as the control of the normal group. Mechanical allodynia tests were performed at 0.5 h, 1 h, and 1.5 h after administration, respectively.
The rats were individually placed in a plexiglass box with a grid at the bottom to ensure that the rat feet could be tested. Rats would acclimatize for 15 minutes prior to the test. After completion of the acclimatizing, test fiber (Touch-Test Sensory Evaluator) was used to test at the central plantar site of the left hind foot of the rats. In the test, the test fiber was pressed vertically against the skin and force was applied to bend the fiber for 6-8 seconds, with 5 seconds apart between each test. In the test, an animal's rapid withdrawal of the foot was noted as a pain response.

[5] = Conventional injection, sterilization according to conventional requirements; assay type: physicochemical; conditions: prepared into a conventional injection
Method: After the cooled pharmaceutical solution is centrifuged at 3000 rpm to 10000 rpm, the precipitate is collected and detected by mass spectrometry (mass spectrometry conditions: chromatographic column: ACQUITY UPLC BEH C8, 50 mm×2.1 mm, 1.7 μm (20180306-C8-08); mobile phase A: 0.1% formic acid/water; mobile phase B: 0.1% formic acid/acetonitrile; flow rate: 0.2 ml/min; column temperature: 30° C.; detector wavelength: UV-210 nm; QDa; cone voltage: positive scan 10 volts, negative scan 5 volts; capillary voltage: plus 1.5 kV, minus 0.5 kV). Based on the detected MS values, it is speculated that the white flocculent precipitate is a degradation impurity as shown in the following formula: […]

| Compound | HPLC purity (%) ([1]; 0 days) | HPLC purity (%) ([1]; 40° C., 5 days) | HPLC purity (%) ([1]; 40° C., 10 days) | HPLC purity (%) ([1]; 40° C., 30 days) | stability at high temperature of 40° C. and under light of 4500 Lux [1] | HPLC purity (%) ([2]; 5 days) | HPLC purity (%) ([2]; 10 days) | HPLC purity (%) ([2]; 30 days) | Inhibition rate ([3]; scratches over 30 min) | Number of scratches (mean ± standard error) ([3]; scratches over 30 min after 400 μg chloroquine intradermal) | Pain inhibition rate ([4]; 0.5 hours after administration) | Pain inhibition rate ([4]; 1 hours after administration) | Pain inhibition rate ([4]; 1.5 hours after administration) | appearance after sterilization when cooled to room temperature [5] |
| --- | --- | --- | --- | --- | --- | --- | --- | --- | --- | --- | --- | --- | --- | --- |
| CC(C)C[C@@H](NC(=O)[C@@H](Cc1ccccc1)NC(=O)[C@H](N)[C@H](C)c1ccccc1)C(=O)N[C@H](CCCCN)C(=O)N1CCC(N)(C(=O)O)C1 (stereo partly drawn) [Acetate salt (1:1)] | 97.9% | 97.7% | 97.5% | 97.1% | better stability | 97.9% | 97.8% | 97.6% |  |  |  |  |  |  |
| CC(C)C[C@@H](NC(=O)[C@@H](Cc1ccccc1)NC(=O)[C@H](N)[C@H](C)c1ccccc1)C(=O)N[C@H](CCCCN)C(=O)N1CCC(N)(C(=O)O)C1 (stereo partly drawn) [Citrate salt (1:1)] | 96.8% | 95.7% | 94.6% | 93.5% | degraded in different degrees | 96.2% | 95.5% | 94.7% |  |  |  |  |  |  |
| CN(C(=O)Cc1ccc(Cl)c(Cl)c1)C(CN1CCCC1)c1cccc(OCC(=O)O)c1 (stereo not drawn) [ICI204448] |  |  |  |  |  |  |  |  | 97.4% | 7.3 ± 2.43 |  |  |  |  |
| CN1CC[C@]23c4c5ccc(O)c4O[C@H]2[C@@H](O)C=C[C@H]3[C@H]1C5 [Morphine, morphine] |  |  |  |  |  |  |  |  |  |  | 122.5% | 84.2% | 27.9% |  |
| CC(C)C[C@@H](NC(=O)[C@@H](Cc1ccccc1)NC(=O)[C@H](N)[C@H](C)c1ccccc1)C(=O)N[C@H](CCCCN)C(=O)N1CCC(N)(C(=O)O)C1 (stereo partly drawn) [Phosphate salt (1:1)] | 96.5% | 95.6% | 94.3% | 92.3% | degraded in different degrees | 96.2% | 95.1% | 94.2% |  |  |  |  |  |  |
| CC(C)C[C@@H](NC(=O)[C@@H](Cc1ccccc1)NC(=O)[C@H](N)[C@H](C)c1ccccc1)C(=O)N[C@H](CCCCN)C(=O)N1CCC(N)(C(=O)O)C1 (stereo partly drawn) [compound (II)] |  |  |  |  |  |  |  |  |  |  |  |  |  | a flocculent precipitate is separated out |
